Test results taken from ChEMBL document CHEMBL3039007, “Structure-based identification of OATP1B1/3 inhibitors” (Mol Pharmacol, 2013).

How the values were obtained:
[1] = biological target: T1, Solute carrier organic anion transporter family member 1B3 (Homo sapiens, UniProt Q9NPD5); conditions: chinese hamster, cho, 10 µM
T1 sequence (Q9NPD5 whole entry): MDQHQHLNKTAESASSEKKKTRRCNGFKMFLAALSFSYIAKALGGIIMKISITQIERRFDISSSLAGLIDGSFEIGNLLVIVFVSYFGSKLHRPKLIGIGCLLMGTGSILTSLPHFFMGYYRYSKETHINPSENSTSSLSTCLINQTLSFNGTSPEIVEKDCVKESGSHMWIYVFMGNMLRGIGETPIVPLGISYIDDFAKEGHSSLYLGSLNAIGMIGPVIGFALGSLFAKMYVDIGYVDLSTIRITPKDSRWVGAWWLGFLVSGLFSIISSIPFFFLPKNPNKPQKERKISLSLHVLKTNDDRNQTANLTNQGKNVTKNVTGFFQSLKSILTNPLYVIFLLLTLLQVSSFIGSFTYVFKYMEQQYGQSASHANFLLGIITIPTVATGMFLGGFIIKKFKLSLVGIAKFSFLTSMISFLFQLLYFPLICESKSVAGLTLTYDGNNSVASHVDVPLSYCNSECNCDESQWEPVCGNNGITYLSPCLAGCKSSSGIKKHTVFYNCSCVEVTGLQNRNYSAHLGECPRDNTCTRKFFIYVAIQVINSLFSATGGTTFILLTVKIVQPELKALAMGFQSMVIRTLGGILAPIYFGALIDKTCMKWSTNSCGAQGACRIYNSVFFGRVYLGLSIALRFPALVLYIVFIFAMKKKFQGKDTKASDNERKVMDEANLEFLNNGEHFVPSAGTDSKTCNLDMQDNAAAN

[2] = biological target: T2, Solute carrier organic anion transporter family member 1B1 (Homo sapiens, UniProt Q9Y6L6); conditions: chinese hamster, cho, 10 µM
T2 sequence (Q9Y6L6 whole entry): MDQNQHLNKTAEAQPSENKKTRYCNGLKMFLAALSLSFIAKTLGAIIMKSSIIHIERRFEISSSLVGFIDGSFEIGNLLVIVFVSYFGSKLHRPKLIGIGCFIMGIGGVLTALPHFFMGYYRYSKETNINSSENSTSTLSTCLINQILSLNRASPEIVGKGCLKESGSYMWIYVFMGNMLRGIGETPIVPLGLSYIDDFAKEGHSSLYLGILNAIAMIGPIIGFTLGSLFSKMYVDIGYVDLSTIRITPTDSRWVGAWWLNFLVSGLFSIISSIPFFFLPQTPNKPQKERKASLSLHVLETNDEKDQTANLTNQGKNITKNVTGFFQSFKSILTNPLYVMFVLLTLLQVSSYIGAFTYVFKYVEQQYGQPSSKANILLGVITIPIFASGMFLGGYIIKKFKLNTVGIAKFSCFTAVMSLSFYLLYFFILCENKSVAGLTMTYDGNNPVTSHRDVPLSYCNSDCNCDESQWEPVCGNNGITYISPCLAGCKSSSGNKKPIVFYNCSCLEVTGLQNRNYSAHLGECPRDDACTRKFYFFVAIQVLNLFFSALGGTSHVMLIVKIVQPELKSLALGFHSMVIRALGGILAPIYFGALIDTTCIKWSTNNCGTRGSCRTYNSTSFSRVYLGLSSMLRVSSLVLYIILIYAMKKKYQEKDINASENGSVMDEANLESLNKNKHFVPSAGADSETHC

SMILES	residual activity [1]	residual activity [2]
O=c1[nH]c(=O)n([C@H]2C[C@H](O)[C@@H](CO)O2)cc1C(F)(F)F [TRIFLURIDINE]	84.35%	64.99%
COc1c2ccoc2nc2c(OC)c(OCC(O)C(C)(C)O)ccc12 (centres undefined) [EVOXINE]	94.63%	94%
COc1cc2c3cc1Oc1cc(ccc1O)CC1c4c(cc(OC)c(O)c4Oc4ccc(cc4)CC3N(C)CC2)CCN1C (centres undefined) [BEBEERINE]	74.29%	53.34%
C[N+]12CCC(CC1)C(OC(=O)C(O)(c1ccccc1)c1ccccc1)C2.[Br-] (centres undefined) [CLIDINIUM BROMIDE]	92.46%	125.2%
C[C@H](C(=O)O)[C@H]1CC[C@H]2[C@@H]3CC=C4C[C@@H](O)CC[C@]4(C)[C@H]3CC[C@]12C	83.58%	71.16%
O=c1cc(-c2ccccc2)oc2cc(O)cc(O)c12 [CHRYSIN]	129.1%	115.4%
Cl.Nc1ccc(/N=N/c2ccccc2)c(N)n1 [PHENAZOPYRIDINE HYDROCHLORIDE]	115.3%	115.4%
C=C1CCC(=O)C(C)CCC2C1CC2(C)C (centres undefined) [DIHYDROCARYOPHYLLEN-5-ONE]	39.09%	24.21%
O=C(O)CN(CCN(CC(=O)O)CC(=O)O)CC(=O)O [EDETIC ACID]	82.24%	81.77%
NC(=O)c1ccc[n+]([C@@H]2O[C@H](COP(=O)([O-])OP(=O)(O)OC[C@H]3O[C@@H](n4cnc5c(N)ncnc54)[C@H](OP(=O)(O)O)[C@@H]3O)[C@@H](O)[C@H]2O)c1 [SODIUM beta-NICOTINAMIDE ADENINE DINUCLEOTIDE PHOSPHATE]	105.1%	190%
CC(=O)O[C@H]1CC[C@]2(C)C3=CC(=O)[C@@]4(C)C(C[C@@H]5OC6(OCC(C)CC6Br)[C@@H](C)[C@@H]54)C3CC[C@H]2C1 (stereo partly drawn) [3beta-ACETOXY-23-BROMO-ISOALLOSPIROST-9 (11)-ENE-12-ONE]	96.22%	102.6%
O=C(NCO)c1cccnc1 [N-HYDROXYMETHYLNICOTINAMIDE]	92.24%	121.9%
O=C(/C=C/c1ccc(O)cc1)c1ccc(O)cc1O [ISOLIQUIRITIGENIN]	119.2%	210.9%
Cc1cc(O)cc(C)c1Cl [CHLOROXYLENOL]	121.1%	116.8%
CC(=O)O[C@H]1CC[C@]2(C)C3=C(CC[C@H]2C1(C)C)[C@]1(C)CC[C@H]([C@H](C)CCC=C(C)C)[C@@]1(C)CC3	93.79%	54.67%
NCCc1ccc(O)cc1 [TYRAMINE]	85.38%	59.9%
C=C[C@H]1CN2CC[C@H]1C[C@H]2[C@H](OC(=O)OCC)c1ccnc2ccc(OC)cc12 [QUININE ETHYLCARBONATE]	64.19%	58.74%
O=C(O)c1c2ccccc2cc2ccccc12 [ANTHRACENE-9-CARBOXYLIC ACID]	87.88%	95.94%
Cc1cn([C@H]2C[C@H](N=[N+]=[N-])[C@@H](CO)O2)c(=O)[nH]c1=O [ZIDOVUDINE]	95.75%	134%
Cl.NC(CO)C(=O)NNCc1ccc(O)c(O)c1O (centres undefined) [BENSERAZIDE HYDROCHLORIDE]	93.94%	93.51%
CC(=O)O[C@@H]1C[C@H]2C(C)(C)CCC(=O)[C@]2(C)[C@H]2CC[C@@]3(C)[C@H](c4ccoc4)OC(=O)[C@H]4O[C@]43[C@@]21C	105.3%	67%

SMILES	residual activity [1]	residual activity [2]
COc1ccc2c(=O)ccoc2c1 [7-METHOXYCHROMONE]	95.23%	91.79%
O=C(/C=C/c1ccc(O)c(O)c1)O[C@H](Cc1ccc(O)c(O)c1)C(=O)O [ROSMARINIC ACID]	102.5%	103.9%
COc1cc2cc3c4cc(OC)c(OC)cc4cc[n+]3c(C)c2cc1OC.[Cl-] [CORALYNE]	150.5%	106.5%
Cl.NCCc1ccc(O)c(O)c1 [DOPAMINE HYDROCHLORIDE]	73.49%	66.46%
COS(C)(=O)=O [METHANESULFONIC ACID METHYL ESTER]	79.48%	57.02%
ClC1=C(Cl)C2(Cl)C3C(Cl)C(Cl)CC3C1(Cl)C2(Cl)Cl (centres undefined) [CHLORDANE]	121.6%	98.3%
O=C(O)c1cc([N+](=O)[O-])ccc1NCCCc1ccccc1 [5-NITRO-2-PHENYLPROPYLAMINOBENZOIC ACID [NPPB]]	33.43%	40.14%
COc1cc(C(C)=O)cc(OC)c1O [ACETOSYRINGONE]	115.4%	104.7%
O=C1C=CC(=O)c2c(O)cccc21 [JUGLONE]	93.79%	66.93%
COC(=O)C[C@H]1C(C)(C)C2(O)OC34CC2C(=O)[C@]1(C)C3CC[C@]1(C)C4=CC(=O)O[C@H]1c1ccoc1 (stereo partly drawn) [8beta-HYDROXYCARAPIN, 3,8-HEMIACETAL]	49.62%	28.54%
O=C(NC(=O)c1c(F)cccc1F)Nc1cc(Cl)c(OC(F)(F)C(F)C(F)(F)F)cc1Cl (centres undefined) [LUFENURON]	97.09%	102.8%
CCC[C@H]1CC2=C(C[C@@H](CC)CC3=C1C(=O)OC3=O)C(=O)OC2=O [BYSSOCHLAMIC ACID]	102.5%	87.32%
CCN(CC)CCOCCOC(=O)C1(c2ccccc2)CCCC1.O=C(O)CC(O)(CC(=O)O)C(=O)O [CARBETAPENTANE CITRATE]	97.23%	86.24%
CC1(C)C(C(Cl)Cl)C2(Cl)C(Cl)C(Cl)C1(Cl)C2(Cl)Cl (centres undefined) [TOXAPHENE]	109.5%	111.3%
COc1cc2c(cc1OC)-c1cc3ccc(OC)c(OC)c3c[n+]1CC2.[Cl-] [PALMATINE CHLORIDE]	97.62%	110.1%
CCOc1ccc(NC(C)=O)cc1 [PHENACETIN]	98.3%	55.67%
C=C1C(=O)O[C@@H]2C3O[C@]3(C)CC/C=C(\C)CC[C@@H]12 (some centres undefined)	114.2%	140.7%
Cc1ccc2c(Cl)cc(Cl)c(O)c2n1 [CHLORQUINALDOL]	88.49%	98.6%
CC(=O)O[C@H]1C[C@@H](O)C(C)(C)[C@@H]2C[C@@H](OC(C)=O)[C@]3(C)[C@H](CC[C@@]4(C)[C@@H](c5ccoc5)OC(=O)[C@H]5O[C@@]534)[C@@]12C [3-DEACETYLKHIVORIN]	88.69%	94.07%
CO[C@@]1(NC(=O)CSCC#N)C(=O)N2C(C(=O)[O-])=C(CSc3nnnn3C)CS[C@@H]21.[Na+] [CEFMETAZOLE SODIUM]	108.6%	123.3%
CC(=O)N1CCCC1C(=O)O (centres undefined) [N-ACETYLPROLINE]	109.9%	88.69%
